Experiments:
[1] = double-blind, placebo-controlled trial; cited from earlier work
retinal ganglion cells [2] = conditions: adult rats, rasagiline before intravitreal SSP
Procedure: The effect of rasagiline on RGC survival is tested in a rat model of RGC survival.
In this well-established model it is used to induce apoptosis of retinal ganglion cells.
Adult rats are used in all rat experiments.
Rats receive a dose of intravitreal SSP in PBS. Animals are imaged immediately and up to 6 h, after which they are sacrificed for histology.
To examine the effect of rasagiline on the survival of RGCs, one group of rats are treated with rasagiline for a period of time before SSP. A further group of naïve rats receives no rasagiline.
The animal is positioned before the cLSO so that the interior of the eye is imaged. An Argon laser wavelength of 488 nm is focused into a small spot and scanned across the retina by a pair of mirrors to excite the administered annexin 5-bound fluorophore. The fluorescence is detected by a solid-state photodetector.
For imaging, animals are held in a stereotaxic frame and their pupils dilated. Videos of scanned retinal areas are assessed for fluorescence. All animals have baseline images recorded before receiving intravitreal injections of Alexa Fluor 488-labeled annexin-5. […]
Fluorescent retinas are assessed by using a confocal laser scanning microscope.
The number of stained RGC and annexin 5-labeled apoptotic RGCs are counted with microscopy analysis software.

[3] = rasagiline alone; cited from earlier work
[4] = test system: retinal ganglion cells (RGCs); conditions: Lewis rats, subcutaneous injection, single or repeated (treatment and prevention protocols)
[5] = rats
Procedure: Rats were sacrificed 2-3 hours after last administration. According to preliminary experiment, in order to obtain enough substance for MAO and protein analysis, 4 retinas (from 2 rats) were combined into one sample, (3 retina samples for MAO per each dose groups). The 6 brains and 6 livers were analyzed separately.

[6] = test system: retinal ganglion cells (RGCs); conditions: Long Evans rats, IP 30 minutes before and 2 hours after ischemia, then once daily
Procedure: Thirty (30) male pigmented rats (Long Evans) are obtained and divided evenly into 3 groups, (2 test groups and 1 control group) 10 animals in each group. Retinal ischemia is induced by a 100/200-mmHg hyperpressure saline column applied to the eye through a needle for 60 minutes.
For the control group, the vehicle (saline solution) is administered IP 30 minutes before ischemia and 2 hours after ischemia.
Electroretinographic (ERG) measurements of a- and b-wave implicit times and peak amplitudes under scotopic conditions at maximal intensity are taken at baseline (just before ischemia), and 4-7 days after reperfusion.
Sampling of fixed flatmount retinas and histological processing for annexin-5 labeling or TUNEL labeling.

[7] = patients with glaucomatous optic neuropathy, vs placebo
retinal ganglion cells [8] = conditions: rats, rasagiline in the drinking water
From the text: Chronic, moderately elevated IOP is produced unilaterally by cautery of three episcleral vessels; the contralateral eye served as the control. To perform the cautery, sutures are placed in the lids to keep the eye open and in the bulbar conjunctiva to manipulate the globe. Three of the four to five major trunks formed by limbal-derived veins are exposed at the equator of the eye by incising the conjunctiva. Each vessel is lifted with a small muscle hook and cauterized by direct application of an ophthalmic, disposable cautery against the muscle hook. Immediate retraction and absence of bleeding of the cauterized ends of the vessels are noted as successful cauterization. After surgery, eyes are treated topically with bacitracin-neomycin-polymyxin for a few days during recovery.
One group is treated with rasagiline, in the drinking water, for a period of time. Another group is not treated with rasagiline, but receives drinking water on the same schedule. Once a month, each animal is anesthetized and IOP is determined bilaterally. The animals are awake within 15 minutes of the IOP measurement. On any given eye, three to five tonometer readings are taken and averaged. […]
Labeled retinal ganglion cells are counted using fluorescence microscopy in 12 fields of the retina.

retinal ganglion cells [9] = conditions: Wistar rats, 0.5 and 3 mg/kg IP once daily, 6 weeks
Procedure: Male Wistar rats weighing 375-400 gm are treated under procedures approved and monitored by the Animal Care Committee of the Tel-Aviv University School of Medicine and following the procedures outlined in the Association for Research in Vision and Opthalmology Statement for the use of animals in ophthalmic and vision research. Animals are housed with a 14 hour light/10 hour dark cycle with standard chow and water ad libitum.
Glaucoma is induced in one eye of rats by using the translimbal laser photocoagulation model developed by Levkovitch-Verbin. This model can produce elevated IOP and typical glaucomatous optic nerve damage in most treated eyes.
In this model, the outflow channels of the rat eye are treated by argon laser at 532 nm. […] IOP is measured with Tonopen XL under the above anaesthesia in both eyes before and immediately after laser treatment and weekly thereafter. Each time ten measurements are obtained on each eye and the mean value is calculated. […]
The volume of administration is 2 ml/kg. […] (calculated for a rat weighing 400 g). […]
Thirty-two (32) images of ×40 magnification from each retina (both eyes for each rat) are photographed using a fluorescent microscope, and the number of surviving retinal ganglion cells are counted for each eye. The number of RGCs in the experimental eye are compared to the fellow control eye to calculated the RGC loss. […]

[10] = retinal degeneration slow mouse; cited from earlier work

## C#CCN(C)[C@H](C)Cc1ccccc1 [Selegiline]
[1]
  effectiveness in treating ALS: ineffective

## C#CCN[C@@H]1CCc2ccccc21 [Rasagiline, R(+)—N-propargyl-1-aminoindan]
Retinal ganglion cells [2]
  effect in the SSP model (RGC apoptosis): positive effect
[3]
  effectiveness in the ALS mouse model: effective treatment
[4]
  effect in the IOP model (RGC survival): positive effect
[5]; preliminary test performed for 2 days, eye drops
  irritation to the eye: did not cause irritation to the eye
[5]; eye drops 0.0165-7.9 mg/kg/day, 10 days
  absorption after intraocular administration: absorbed in all doses
[6]
  recovery of the retinal electric activity and/or number of apoptotic RGCs after transient ischemia: positive effect
[7]
  atrophy of the optic nerve: reduced atrophy
  preservation of the retina and of the structural integrity of the optic nerve: increased preservation
  protection against loss of RGCs: increased protection
  visual field loss: reduced visual field loss
Retinal ganglion cells [8]
  effect in the chronic, moderately elevated IOP model (RGC survival): positive effect
Retinal ganglion cells [9]
  effect in the experimental glaucoma model: positive effect
  ganglion survival in the treated group: More ganglion survival

## C[C@]12C=CC(=O)C=C1CC[C@@H]1[C@@H]2[C@@H](O)C[C@@]2(C)[C@H]1CC[C@]2(O)C(=O)CO [prednisolone]
[10]
  effect on retinal degeneration: unsuccessful

Source: patent US20090062400A1 (priority 2007, published 2009)
